Test: Particle size of suspensions by PCS / laser diffractometer (LD)
Assay type: physicochemical
Description: Wet grinding has been employed as a further grinding technique (Sandell, E., Grundriss der Galenischen Pharmazie [Principles of galenical pharmacy], Govi-Verlag GmbH, Frankfurt am Main, 1962), for example using a Premier Mill (Sandell, loc. cit.) or a ball or pearl mill (Hagers Handbuch der pharmazeutischen Praxis [Hagers handbook of pharmaceutical practice], Springer-Verlag, Berlin, 1925). Although a main population of particles in the nanometer range results when a pearl mill is used, a significant proportion of particles larger than 1 μm is still present. […] RNXP 22 was ground (Dispermat) in a pearl mill without addition of surfactant (FIG. 2: A) and with addition of 3% Tween 80 (FIG. 2: A+surfactant). The 50% diameter of the surfactant-free sample is already approx. 2 μm, i.e. 50% of the particles are >2 μm. Some of these micrometer particles can be attributed to agglomeration. As described in the literature (Sandell, loc. cit.; P. H. List, Arzneiformenlehre [Drug forms], Wissenschaftliche Verlagsgesellschaft mbH Stuttgart, 1976; Sucker, H., Speiser, P., Fuchs, P., Pharmazeutische Technologie [Pharmaceutical technology], George Thieme Verlag Stuttgart, 1978; Munzel, K., Buchi, J., Schultz, O.-E., Galenisches Praktikum [Practical galenics], Wissenschaftliche Verlagsgesellschaft mbH Stuttgart, 1959), aggregation in suspensions can be prevented by addition of surfactants (Tween 80, Pluronic F 68) or generally stabilizers (e.g. polyvinylpyrrolidone--PVP, Pluronic F 68). […] As a rule, this is also recommended by manufacturers of mills (e.g. Dyno-Mill, A. Bachoffen AG Maschinenfabrik). Surfactant-stabilized microparticles have also been patented (U.S. Pat. No. 5,246,707), it also being possible for these additionally to comprise iron particles within the microparticles in order to allow location of the particles via magnetic fields.
Another preparation method which has been known for a long time is "via humida paratum", precipitation by pouring a solution of the active compound into a non-solvent (Hagers Handbuch der pharmazeutischen Praxis [Hagers handbook of pharmaceutical practice], Springer-Verlag, Berlin, 1925). By pouring into the non-solvent, the Ostwald Mie range is rapidly passed through and a very fine precipitate separates out. The particles which have precipitated out likewise have a significant proportion in the micrometer range. […] The drug was dissolved in ethanol (3%, 20 ml) and the solution poured into 100 ml of an aqueous surfactant solution (1.2% Pluronic F68). The end of the measuring range is 80 μm, and a large fraction between approx. 18 μm to 80 μm was detected.
The powdered drug (ground in an air jet, particles up to more than 25 μm) was rubbed in a grinding dish with a concentrated surfactant solution for wetting, and the remaining aqua dest. was then added, while stirring. Alternatively, the drug powder can also be introduced into a surfactant solution by stirring. […] The average particle diameter of the parent suspensions (=suspension with 0 cycles), measured with the laser diffractometer, and of the resulting nanosuspensions by PCS (PI=polydispersity index):
Preparation of the suspension and subsequent homogenization as in example 1. […] To monitor the decrease in the particles also in the size range from 1 μm to several μm as a function of the number of cycles, the samples were analysed with the LD. The results were evaluated by plotting the 99% diameter against the number of cycles (FIG. 6). […]

[1] = ground in an air jet, LD (FIG. 1)

50% LD diameter (ground in a pearl mill, surfactant-free sample (FIG. 2: A)): approx. 2 μm
particles >1 μm [1]: 92%
particles in the range below 1,000 nm [1]: 8%
particles smaller than 25 μm [1]: 100%
SMILES: C[C@@H]1CN(c2nc(N(CCO)CC(C)(C)O)c3nc(-c4ccccc4)c(N4C[C@@H](C)O[C@@H](C)C4)nc3n2)C[C@H](C)O1 [RMKP 22, 4-[N-(2-hydroxy-2-methylpropyl)-ethanolamine]-2.7-bis(cis-2.6-dimethylmorpholin-4-yl)-6-phenyl-pteridine]
effect of surfactant on diameters of the volume distribution (pearl mill, addition of 3% Tween 80 (FIG. 2: A+surfactant)): only a slight reduction in the diameters of the volume distribution
